Here are results for 11 molecules from US5574068A, “S-nitrosothiols as smooth muscle relaxants and therapeutic uses thereof” (Brigham and Woman's Hospital, priority 1994, dated 1996).

“Also recorded” adds a separate entry of the source. Where only a bound is given, the exact number is not on record here.

The test system of data set [1] is guinea pig tracheal rings. As to the kind of experiment: Airway bioassay: relaxation of contracted guinea pig tracheal rings (isometric tension). To be noted: for IC50: Cavia porcellus, guinea pig tracheal rings contracted with 3 μM histamine, mean ± S.D., read-out: Inhibitory Concentrations Inducing 50% Relaxation (IC50); for inhibition of relaxation responses to SNOAC: airways contracted with 3 uM histamine, 10^-5 M and 10^-4 M methylene blue; for inhibition of relaxation responses to SNOAC / attenuation of the actions (relaxation) of SNOAC: 10^-4 M hemoglobin; for attenuation of the actions (relaxation) of SNOAC: guinea pig airways, 10^-5 and 10^-4 M methylene blue. The class given is cell-based. An excerpt: (§1) Male Hartley guinea pigs (500-600 g) were anesthetized by inhalation of enflurane to achieve a surgical plane of anesthesia. The trachea were excised and placed in Kreb's-Henseleit buffer (mM): NaCl 118, CKl 5.4, NaH2 PO4 1.01, glucose 11.1, NaHCO3 25.0, MgSO4 0.69, CaCl 2.32, pH 7.4. The airways were then dissected free from surrounding fat and connective tissue and cut into rings 2-4 mm in diameter. The trachea rings were placed in sterile Medium 199 containing 1% antibiotic/antimycotic mixture in an atmosphere of 5% CO2, 45% O2, […], and kept for up to 48 hours in tissue culture. The experiments were also performed on human airway smooth muscle, isolated by the same method.
(§2) Trachea and aortic rings were mounted on stirrups and connected to transducers (model FOT3C Grass) with which changes in isometric tension were measured. Rings were then suspended in 10 cc of oxygenareal (95% O2, 5% CO2) buffer. Conditions for both the vessel and airway bioassays were established according to standard methodologies as described in Cooke et al., Am. J. Physiol. 259(3):H804-H812 (1990).
(§3) In airway experiments, the tings were equilibrated for 60 minutes under a load of 1 gm and then primed twice by exposure to 100 μmethacholine. Tissues were contracted with various agonists at concentrations determined to generate 50% (±16% S.D.) of maximum tone, after which the effects of different thiols and their S-nitrosylated derivatives were assessed. In selected experiments, relaxation responses were determined in the presence of hemoglobin, or after rings had been preexposed to methylene blue for 30 minutes.
Dose-response relationships to SNOAC were obtained in airways contracted with 3 uM histamine, and repeated in the presence of 10^-4 M hemoglobin, 10^-5 M methylene blue, and 10^-4 M methylene blue. […] Cyclic GMP determinations were performed in duplicate for each experiment.

The conditions of data set [2]: cited from earlier work.
The test system of data set [3] is cGMP in human airways. Put plainly: Cyclic GMP radioimmunoassay in human airways. The class given is cell-based. Here is the method: (§4) The mechanism by which S-nitrosothiols relax vascular smooth muscle is felt to be through activation of guanylate cyclase with consequent increase in intracellular cyclic GMP (Ignarro et al., Circ. Res. 65:1-21 (1989); Loscalzo et al., J. Pharmacol. Exp. Ther. 249(3):726-729 (1989)). In order to assess this mechanism in airways, tracheal rings in Kreb's-Henseleit solution were exposed to 100 μM S-nitroso-N-acetylcysteine (SNOAC) for 90 seconds. Reactions were terminated by the addition of ice cold 10% trichloracetic acid and rapid freezing in ethanol-saturated dry ice.
(§5) In selected experiments, rings were preexposed to the guanylate cyclase inhibitor, methylene blue (10^-4 M) for 30 minutes. Tissues were then individually pulverized with a glass (s) homogenizer and centrifuged at 8000 g for 5 minutes. The clear supernatant was extracted with water-saturated ether and assayed for cyclic GMP by radioimmunoassay. Acetylation of samples with acetic anhydride was used to increase the sensitivity of the assay and the determination of recoveries was aided by the use of [^3 H] cyclic GMP.
(§6) The effect of guanylate cyclase inhibitors upon S-nitrosothiol-induced airway relaxation and cGMP increase was assessed, using the previously described bioassay and cyclic nucleotide assay procedures. Bronchodilator effects of S-NOGSH and SNOAC were examined in human airways (5-12 mm outer diameter).

Data set [4] has as its system cyclic GMP (guanylate cyclase) in tracheal rings. Put plainly: Cyclic GMP radioimmunoassay in guinea pig tracheal rings. The class given is cell-based. The procedure: as §4, §5
Data set [5] relates to gastrointestinal smooth muscle (Sphincter of Oddi, duodenum, colon). As to the kind of experiment: Patient studies: topical administration during endoscopy, gastrointestinal smooth muscle motility. Format: in vivo, human. To be noted: patients. An excerpt: Patient studies, conducted by the inventors, have measured the efficacy of S-nitrosothiols both in facilitating cannulation of the sphincter of Oddi, and in decreasing colon motility to allow for removal of colon polyps. […] The same type of effects would occur with the use of other cell impermeable S-nitrosothiols, such as S-nitroso-glutathione.

In data set [6] the test system is human airway smooth muscle. As to the kind of experiment: Airway bioassay: relaxation of contracted human tracheal/airway rings. The class given is cell-based. To be noted: for IC50: human airways 5-12 mm outer diameter, contracted with methacholine (7 μM); for IC50 compared with theophylline: human airways contracted with methacholine (7 μM); for relaxant effect on human trachea, comparison with other agents: human tracheal rings, FIGS. 11-14; for inhibition of S-nitrosothiol (SNOAC)-induced relaxation in human airways: methylene blue 10^-4, LY83583 5×10^-5, hemoglobin 100 μM.
Source text: as §1, §2, §3, §6

Data set [7] is described as follows: Stability in the presence of oxygen and redox metals. The note with it: 95% O2, pH 7.4. Format: physicochemical. Here is the method: The stability of SNOAC and SNOGSH in the presence of oxygen and redox metals was assessed.
In addition, S-nitrosothiol stability was assessed in the presence of various redox metals or chelating agents. These compounds were resistant to decomposition when Cu^+, Fe^2+, or Cu^2+ (50 μM) or defuroxamine or EDTA S-nitrosothiols are not rapidly inactivated in the presence of oxygen, nor do they decompose in the presence of redox metals.

In data set [8] the target is T1, hemoglobin (Bos taurus, UniProt P01966+P02070).
T1 construct: purchased Sigma Chemical Co., St. Louis, Mo
T1 sequence (P02070 whole entry): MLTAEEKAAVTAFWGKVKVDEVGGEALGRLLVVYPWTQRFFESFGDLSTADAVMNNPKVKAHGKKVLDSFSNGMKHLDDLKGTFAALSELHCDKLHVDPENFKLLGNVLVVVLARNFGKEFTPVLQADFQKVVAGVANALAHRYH
T1 sequence (P01966 2-142 limits assumed): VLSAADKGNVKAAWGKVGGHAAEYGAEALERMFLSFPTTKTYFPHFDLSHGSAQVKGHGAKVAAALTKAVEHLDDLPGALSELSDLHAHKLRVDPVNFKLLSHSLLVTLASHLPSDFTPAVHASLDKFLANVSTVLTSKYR
Put plainly: Reaction of S-nitrosothiol with hemoglobin (UV spectrum, oxygen association curve). Format: biochemical, bovine. The note with it: SNOAC over 15 minutes, NO from NaNO2 in 0.5N HCl. The procedure: Additional experiments were conducted to evaluate the reaction between S-nitrosothiols and hemoglobin. […] S-nitrosylation was verified, using standard methods for detection of S-nitrosothiols (Saville, Analyst 83:670-672 (1958)). The Saville method, which assays free NOx in solution, involves a diazotization reaction with sulfanilamide and subsequent coupling with the chromophore N-(1-naphthyl)ethylenediamine. The specificity for S-nitrosothiols derives from assay determinations performed in the presence and absence of HgCl2, the latter reagent catalyzing the hydrolysis of the S--NO bond.
For the purposes of comparison, equimolar concentrations of hemoglobin and NaNO2 were reacted in 0.5N HCl, to form nitrosyl-hemoglobin, and the UV spectrum was obtained.
Thus, the reaction between S-nitrosothiols and hemoglobin not only eliminates the inhibition of oxygen binding which occurs from the reaction with NO.cndot., but actually increases binding and oxygenation of the blood.

In the case of `CC(C)NCC(O)c1ccc(O)c(O)c1` (stereo not shown) [isoproterenol, reference compound], in data set [1] (FIG. 8), the “rank of relaxant activity among SNOAC, isoproterenol, theophylline” value is on record as “most active relaxant”.

For the molecule `C[C@H](CSN=O)C(=O)N1CCC[C@H]1C(=O)O` [S-nitroso-captopril], in data set [1], the IC50 came out at 20 ± 0.7 µM.

For `Cn1c(=O)c2[nH]cnc2n(C)c1=O` [theophylline], the “plasma concentration at which unacceptable symptoms of toxicity usually appear” value in data set [2] is not below 20000 ng/mL.

Regarding `CC(=O)N[C@@H](CSN=O)C(=O)O` [S-nitroso-N-acetylcysteine], the “increase in cyclic GMP over basal levels (control)” value in data set [3] (human airways incubated with SNOAC) is listed as 4 fold; in data set [4] (guinea pig tracheal rings, 100 μM SNOAC, 90 seconds), 4 fold. Further, in data set [3] (human airways, Table 3), the cGMP is 46 ± 17 Pmol/gm. In addition, the “duration and reversibility of relaxant effects” value in data set [5] was “temporary (lasting only for the duration of the procedure), completely reversible”. Further, the “systemic blood pressure, heart rate, oxygen saturation” value in data set [5] is listed as “produced no change in systemic blood pressure, heart rate or oxygen saturation”. In addition, the colon motility result in data set [5] (removal of colon polyps) was “eliminated colon motility”. Further, the duodenal motility result in data set [5] (topical administration) was “eliminated duodenal motility”. In data set [5] (topical administration, endoscopic cannulation), the “contractile activity of the Sphincter of Oddi” value is “inhibited the contractile activity of the Sphincter of Oddi”. Also, the IC50 was determined as 22 µM in data set [6] and 2.1 ± 0.8 µM in data set [1]. For the same molecule, the “IC50 compared with theophylline” value in data set [6] is listed as “approximately two orders of magnitude greater than theophylline”. In addition, the “relaxant effect on human trachea, comparison with other agents” value (“relaxant effect on human trachea” below) in data set [6] (listed as SNOAC) was “significantly greater than that of N-acetylcysteine; also recorded: significantly more potent than that of theophylline; also recorded: compares favorably with that exerted by isoproterenol”. For the same molecule, the half life entry in data set [7] is reported as “on the order of hours”. Moreover, the “reaction at the redox metal (iron-binding) site of hemoglobin” value in data set [8] is on record as “no reaction at the redox metal (iron-binding site) of hemoglobin”. Also, the persistence of relaxation result in data set [1] (5×10^-6 M, at one hour) is given as “significant residual loss of tone was still evident at one hour”. For the same molecule, the “time to maximal relaxation” value in data set [1] (5×10^-6 M, followed over 60 minutes) is reported as “maximal relaxation occurred by five minutes”. The “relaxant activity of SNOAC relative to SNOCAP” value in data set [1] (contractions induced by leukotriene D4, histamine, methacholine, in every case) is “approximately 10 fold”. In data set [1] (identical study conditions, FIG. 8), the “relaxant activity relative to theophylline” value is “approximately 50 times”.

On to `N[C@@H](CSN=O)C(=O)O` [S-nitroso-cysteine], for which the IC50 in data set [1] turned out to be 3.2 ± 0.2 µM.

Consider `CC(=O)N[C@@H](CS)C(=O)O` [N-acetylcysteine, reference compound], for which the “relaxant effect on human trachea” value in data set [6] is on record as “caused significant constriction of the tracheal smooth muscle”.

For the molecule `N[C@@H](CCSN=O)C(=O)O` [S-nitroso-homocysteine], the IC50 in data set [1] was 2.1 ± 0.3 µM.

In the case of `N[C@@H](CCC(=O)N[C@@H](CSN=O)C(=O)NCC(=O)O)C(=O)O` [S-nitroso-glutathione], the IC50 in data set [6] is 22 µM; in data set [1] it was 0.99 ± 2 µM. The “IC50 compared with theophylline” value in data set [6] is recorded as “approximately two orders of magnitude greater than theophylline”. Also, the “relaxant effect on human trachea” value in data set [6] is given as “significantly greater than nitrite (NO2)”; in data set [6] (listed as S-nitrosoglutathione), “significantly greater than glutathione alone”; in data set [6] (listed as SNOGSH), “significantly more potent than that of theophylline; also recorded: compares favorably with that exerted by isoproterenol”. Besides, in data set [7], the half life entry is reported as “on the order of hours”.

As to “hemoglobin: hemoglobin (bovine), established inhibitor of NO-induced relaxations”, the “inhibition of S-nitrosothiol (SNOAC)-induced relaxation in human airways” value in data set [6] is listed as “neither hemoglobin or methylene blue attenuated the relaxation effect; also recorded: had little effect”. For the same molecule, in data set [1], the “inhibition of relaxation responses to SNOAC” value is “inhibited” and the “attenuation of the actions (relaxation) of SNOAC” value is listed as 10-20%.

As to `CN(C)c1ccc2nc3ccc(=[N+](C)C)cc-3sc2c1` [methylene blue, reference compound], in data set [4] (pretreatment with methylene blue 10^-4 M, 30 minutes), the “effect on SNOAC-induced increase in cyclic GMP” value was “attenuated”. Besides, in data set [6], the “inhibition of S-nitrosothiol (SNOAC)-induced relaxation in human airways” value is given as “neither hemoglobin or methylene blue attenuated the relaxation effect; also recorded: not significantly inhibited”. In data set [1], the “inhibition of relaxation responses to SNOAC” value was “in a dose-dependent manner” and the “attenuation of the actions (relaxation) of SNOAC” value is reported as 10-20%.

`[N]=O` [NO, nitric oxide, reference compound]: in data set [7], the half life entry was “on the order of seconds”. Besides, the “reaction at the redox metal (iron-binding) site of hemoglobin” value in data set [8] was “reacted instantaneously with the redox metal site on hemoglobin”.
